According to publication PMC9225712, “Rational design of biodegradable sulphonamide candidates treating septicaemia by synergistic dual inhibition of COX-2/PGE2 axis and DHPS enzyme” (Journal of Enzyme Inhibition and Medicinal Chemistry, 2022):
Marks after values point to notes of the source that are not given here.

How the values were obtained:
[1] = system: Salmonella typhi (RCMB 0100104); assay: Inhibition zone, agar cup diffusion; assay type: cell-based; settings: Salmonella enterica, 24 h, read-out: inhibition zones (IZ) S. typhi
gastric layers = assay: Gastric ulcerogenic activity; settings: fasted male Wistar rats, oral 30 µmol/kg twice at 4 h interval
human recombinant COX-2 = molecular target: T1, human recombinant COX-2 (Homo sapiens, UniProt P35354); assay: In vitro COX-2 enzymatic assay (Cayman kit 560131)
T1 sequence (P35354 18-604): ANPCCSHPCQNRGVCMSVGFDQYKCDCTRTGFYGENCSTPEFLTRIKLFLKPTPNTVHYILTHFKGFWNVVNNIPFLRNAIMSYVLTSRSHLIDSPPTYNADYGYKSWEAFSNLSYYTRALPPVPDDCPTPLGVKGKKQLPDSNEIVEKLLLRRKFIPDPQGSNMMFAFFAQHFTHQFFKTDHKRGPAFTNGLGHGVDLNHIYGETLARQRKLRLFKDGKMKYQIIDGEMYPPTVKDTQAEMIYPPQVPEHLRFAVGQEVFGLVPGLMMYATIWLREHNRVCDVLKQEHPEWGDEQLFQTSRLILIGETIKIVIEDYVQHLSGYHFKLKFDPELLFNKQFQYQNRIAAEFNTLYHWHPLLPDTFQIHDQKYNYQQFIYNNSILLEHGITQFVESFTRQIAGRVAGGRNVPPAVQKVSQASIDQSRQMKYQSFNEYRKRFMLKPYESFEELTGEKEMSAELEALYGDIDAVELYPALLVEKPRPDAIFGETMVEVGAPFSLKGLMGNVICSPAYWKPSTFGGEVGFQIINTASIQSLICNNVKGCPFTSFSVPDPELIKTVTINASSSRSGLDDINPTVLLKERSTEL

[2] = system: Shigella dysenteriae (RCMB 0100542); assay: Inhibition zone, agar cup diffusion; assay type: cell-based; settings: RCMB0100542, 24 h, read-out: inhibition zones (IZ) S. dysenteriae
E. coli C11 = settings: mice, challenge dose 7.1x10^3 CFU/mouse ip, intragastric once a day for 7 days, survival
[3] = system: Bacillus subtilis (RCMB 0100162); assay: Inhibition zone, agar cup diffusion; settings: RCMB0100162, 24 h, read-out: inhibition zones (IZ) B. subtillis
[4] = system: Escherichia coli (RCMB 010052); assay: Inhibition zone, agar cup diffusion; settings: RCMB010052, 24 h, read-out: inhibition zones (IZ) E.coli
PGE2 = assay: Estimation of rat plasma PGE2; settings: po 10 µmol/kg b.wt., 8 h after carrageenan
[5] = system: Staphylococcus aureus (RCMB 0100183); assay: Inhibition zone, agar cup diffusion; settings: RCMB0100183, 24 h, read-out: inhibition zones (IZ) S. aureus
[6] = system: Streptococcus mutans (RCMB 0100172); assay: Inhibition zone, agar cup diffusion; settings: RCMB0100172, 24 h, read-out: inhibition zones (IZ) S. mutans
[7] = system: Pseudomonas aeruginosa (RCMB 0100243); assay: Inhibition zone, agar cup diffusion; settings: RCMB0100243, 24 h, read-out: inhibition zones (IZ) P.aeruginosa
[8] = system: carrageenan-induced paw edoema; assay: Carrageenan-induced paw edoema in mice
ovine COX-1 = molecular target: T2, ovine COX-1 (Ovis aries, UniProt P05979); assay: In vitro COX-1 enzymatic assay (Cayman kit 560131); assay type: biochemical; settings: Mean ± SEM of triplicate determinations
T2 construct: purchased Cayman Chemicals Inc. 560131
T2 sequence (P05979 25-600): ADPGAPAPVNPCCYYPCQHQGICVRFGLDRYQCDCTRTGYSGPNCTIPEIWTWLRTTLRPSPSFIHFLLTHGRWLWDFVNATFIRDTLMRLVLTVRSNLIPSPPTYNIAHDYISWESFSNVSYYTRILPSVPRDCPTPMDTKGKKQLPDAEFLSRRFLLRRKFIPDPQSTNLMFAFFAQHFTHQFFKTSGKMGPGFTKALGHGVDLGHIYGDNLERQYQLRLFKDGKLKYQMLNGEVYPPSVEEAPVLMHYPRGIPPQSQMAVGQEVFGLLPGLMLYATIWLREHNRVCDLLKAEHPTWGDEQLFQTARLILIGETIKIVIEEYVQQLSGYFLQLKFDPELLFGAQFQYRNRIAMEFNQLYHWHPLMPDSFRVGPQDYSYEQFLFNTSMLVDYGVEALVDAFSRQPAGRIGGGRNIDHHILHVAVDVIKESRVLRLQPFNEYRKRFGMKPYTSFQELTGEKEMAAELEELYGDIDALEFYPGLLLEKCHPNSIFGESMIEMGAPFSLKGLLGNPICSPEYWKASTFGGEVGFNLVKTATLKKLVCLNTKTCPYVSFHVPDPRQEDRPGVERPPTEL

[9] = system: Gram-positive and Gram-negative bacteria; assay: In vitro antibacterial screening, whole panel; assay type: cell-based; settings: whole bacterial panel, result in words
[10] = system: Staphylococcus epidermidis (RCMB 0100183); assay: Inhibition zone, agar cup diffusion; settings: RCMB0100183, 24 h, read-out: inhibition zones (IZ) S. epidermidis
[11] = system: Proteus vulgaris (RCMB 010085); assay: Inhibition zone, agar cup diffusion; settings: RCMB010085, 24 h, read-out: inhibition zones (IZ) P. vulgaris

## Cc1ccnc(NS(=O)(=O)c2ccc(/N=N/c3ccc(O)c(C(=O)N4CCOCC4)c3)cc2)n1 [Compound 5o, 4-((4-Hydroxy-3-(morpholine-4-carbonyl)phenyl)diazenyl)-N-(4-methylpyrimidin-2-yl) benzenesulfonamide]
[1]
  zone of inhibition at 1000 µg/mL: 18 mm
Gastric layers
  Gastric ulcerogenic effect, histopathological examination of gastric layers: erosion in the gastric layers
Human recombinant COX-2
  IC50: 0.06 ± 0.0008 µM
Human recombinant COX-2; COX-2 selectivity index: COX-1 IC50/COX-2 IC50
  SI COX-1/COX-2: 211.5
[2]
  zone of inhibition at 1000 µg/mL: 23 mm
E. coli C11
  ED50, protective effect against bacteremic infection, Escherichia coli: 306.4 µmol/kg/day
[3]
  zone of inhibition at 1000 µg/mL: 20 mm
[4]
  zone of inhibition at 1000 µg/mL: 16 mm
PGE2; rat serum
  % inhibition of PGE2-production: 72.92%
PGE2; rat, Mean ± SEM, n = 5
  PGE2 serum conc.: 357.636 ± 7.48 pg/mL
[5]
  zone of inhibition at 1000 µg/mL: 21 mm
[6]
  zone of inhibition at 1000 µg/mL: 27 mm
S. aureus Smith; Staphylococcus aureus, in Mus musculus, read-out: ED50 against S. aureus infection
  ED50: 353 to 413 µmol/kg
S. aureus Smith; mice, challenge dose 9.5x10^6 CFU/mouse ip, intragastric once a day for 7 days, survival
  ED50, protective effect against bacteremic infection, Staphylococcus aureus: 352.7 µmol/kg/day
[7]
  zone of inhibition at 1000 µg/mL: 18 mm
[8]; Mus musculus, 8 h, read-out: ED50 (95% confidence level)
  ED50: 13.3 µmol/kg
[8]; mice, po 10 µmol/kg b.wt., 0 h (before carrageenan), Mean ± SEM, n = 5
  Thickness of edoema 0h: 0.65 ± 0.004 mm
[8]; mice, po 10 µmol/kg b.wt., 2 h
  percentage anti-inflammatory activity (AI%) 2h: (6.32%)
[8]; mice, po 10 µmol/kg b.wt., 2 h after carrageenan, Mean ± SEM, n = 5
  Thickness of edoema 2h: 0.89 ± 0.01^c mm
[8]; mice, po 10 µmol/kg b.wt., 4 h
  percentage anti-inflammatory activity (AI%) 4h: (43.06%)
[8]; mice, po 10 µmol/kg b.wt., 4 h after carrageenan, Mean ± SEM, n = 5
  Thickness of edoema 4h: 0.82 ± 0.02^c mm
[8]; mice, po 10 µmol/kg b.wt., 6 h
  percentage anti-inflammatory activity (AI%) 6h: (63.41%)
[8]; mice, po 10 µmol/kg b.wt., 6 h after carrageenan, Mean ± SEM, n = 5
  Thickness of edoema 6h: 0.75 ± 0.02^c mm
[8]; mice, po 10 µmol/kg b.wt., 8 h after carrageenan, Mean ± SEM, n = 5
  Thickness of edoema 8h: 0.64 ± 0.02^c mm
Ovine COX-1
  IC50: 12.9 ± 0.05 µM
[9]
  in vitro antibacterial activity: weak in vitro antibacterial activity
[10]
  zone of inhibition at 1000 µg/mL: 35 mm
[11]
  zone of inhibition at 1000 µg/mL: 19 mm
